From patent US6962930B1, “Compounds, compositions and method suitable for amelioration of withdrawal syndromes and withdrawal-induced brain damage” (Lohocla Research Corporation, priority 1997, dated 2005)

Legend:
[1] = tested on: audiogenic seizures in DBA/2J mice; assay: Audiogenic seizures; type: in vivo; details: 100 or 500 mg/kg, about 90 minutes before stimulus
Procedure: Male DBA/2J mice (20–22 days old; 8–12 g) were used to evaluate the effects of DCUK-OMe in an animal model of partial seizures. A description of this test for audiogenic seizures can be found in Engstrom, F. L., et al., “SEIZURE SUSCEPTIBILITY IN DBA AND C57 MICE: THE EFFECTS OF VARIOUS CONVULSANTS,” Epilepsia., 29 389–395 (1988), the relevant disclosures of which are incorporated herein by reference. Mice were injected with either vehicle (5% Tween-80, 20% Intralipid) or 100 mg/kg or 500 mg/kg DCUK-OMe suspended in the vehicle about 90 minutes before being placed into a testing chamber having a size of about 6 inches (about 15.2 cm) diameter×about 20 inches (about 50.8 cm) height enclosed in a sound-attenuated box. After a 15–20 second habituation period, a high-intensity auditory stimulus (ringing doorbell, 12–16 kHz, 109 db) was activated for 30 seconds or until tonic hindlimb extension occurred. The seizure response in these mice was characterized by a progression of a wild running behavior, followed by loss of righting and clonus of the forelimbs, followed by tonic hindlimb extension, and finally respiratory arrest. The number of mice showing each response was recorded. […] Data were analyzed by the Fisher Exact Test. In FIG. 8, * denotes P<0.05 compared to vehicle injected mice.

Swiss-Webster mice = assay: Ethanol-induced loss of righting reflex; type: in vivo; details: i.p. 30 minutes before ethanol; DCUK-OMe 100 mg/kg, DZP 1 mg/kg
Procedure: Swiss-Webster mice were pretreated (i.p.) with 100 mg/kg DCUK-OMe or 1 mg/kg diazepam (DZP) (in 5% Tween-80, 20% Intralipid) 30 minutes before receiving an i.p. administration of ethanol (either 2.3 or 3.2 g/kg, 20% v/v in saline.). The duration of the ethanol-induced loss of righting reflex (defined as the inability of the mouse to right itself when placed on its back in a trough) was measured. […] Since withdrawal signs are many times evident in individuals whose blood ethanol levels are dropping but are far from zero, the DCUK compounds would have an advantage over DZP in that the CNS depressant effects of ethanol would not be accentuated by DCUK compounds if the DCUK compounds are used in an alcohol-intoxicated individual.

[2] = target: T1, NR1a/NR2B recombinant receptors (Homo sapiens, UniProt Q05586); assay: NMDA-induced currents in oocytes expressing NR1a/NR2B; type: cell-based; details: 100 μM NMDA, 50 μM DCUKA, increasing glycine
T1 construct: expressed in transfected cells; host or cells: Xenopus laevis oocytes, nuclear cDNA injection
Procedure: (§1) Oocytes were obtained from Xenopus laevis frogs (Nasco or Xenopus I) kept in aquarium tanks at 19–21° C., on a 12 hr light/dark cycle. Mature females were anesthetized by immersion for approximately 30 min in a 0.12% 3-aminobenzoic acid ethyl ester solution, a small incision was made in the abdominal wall and a piece of ovary was removed and placed in Modified Barth's solution (MBS; in mM) containing 88 NaCl, 1 KCl, 10 HEPES, 0.82 MgSO4, 2.4 NaHCO3, 0.91 CaCl2, 0.33 Ca(NO3)2 (pH 7.5). To facilitate manual dissection of oocytes, a section of ovary was transferred from MBS to a hypertonic buffer containing 108 mM NaCl, 2 mM KCl, 2 mM EDTA, 10 mM HEPES, pH 7.5 and theca and epithelial layers of mature oocytes (stages V and VI) were removed with surgical forceps. The follicular layer was removed by a 10 min immersion in 0.5 mg/ml of collagenase in buffer containing 83 mM NaCl, 2 mM KCl, 1 mM MgCl2 and 5 mM HEPES.
(§2) Human NR1a, NR2A and NR2B cDNAs in pCDNA-1Amp were transformed and amplified in XL-1 Blue cells and purified with the MaxPrep Qiagen kit. Oocytes were injected with cDNA into the nucleus in the following concentrations: NR1a/2A cDNAs 0.75 ng/30 nl 1:1 ratio, NR1a/2B cDNAs 3.0 ng/30 nl: 1:1 ratio. Injections were made with micropipettes (10 μm tip diameter) connected to a Drummond micropipettor attached to a micromanipulator. After injection, oocytes were individually placed in wells of 96-well microtiter plates containing incubation medium (MBS supplemented with 10 mg/l streptomycin, 10,000 U/l penicillin G, 50 mg/l gentamicin, 2 mM sodium pyruvate, 0.5 mM theophylline) that had been sterilized by passage through a […]. Oocytes were incubated at 19° C. for 2 to 4 days after injection.
(§3) Oocytes were placed in a rectangular chamber (approximately […]) and perfused (2 ml/min) with frog Ringer (in mM) containing 115 NaCl, 2.5 KCl, 1.8 CaCl2, 10 HEPES (pH 7.2). […] Control responses were always measured before and after addition of the DCUKA. […] Data are expressed as the % inhibition of the agonist response obtained in the absence of the drug.

[3] = target: T2, NR1a/NR2B recombinant receptors (Homo sapiens, UniProt Q05586+Q13224); assay: as above; type: cell-based; details: 100 μM NMDA, 0.3 μM glycine, oocytes; read-out: IC50, inhibition of NMDA-induced currents
T2 construct: expressed in transfected cells; host or cells: Xenopus laevis oocytes, nuclear cDNA injection
Procedure: as §1, §2, §3

[4] = target: T3, NR1a/NR2A recombinant receptors (Homo sapiens, UniProt Q05586+Q12879); assay: NMDA-induced currents in oocytes expressing NR1a/NR2A; type: cell-based; details: 100 μM NMDA, 1 μM glycine, oocytes; read-out: IC50, inhibition of NMDA-induced currents
T3 construct: expressed in transfected cells; host or cells: Xenopus laevis oocytes, nuclear cDNA injection
Procedure: as §1, §2, §3

[5] = target: T4, NR1a/NR2A recombinant receptors (Homo sapiens, UniProt Q05586); assay: as above; type: cell-based; details: 100 μM NMDA, 50 μM DCUKA, increasing glycine up to 100 μM
T4 construct: expressed in transfected cells; host or cells: Xenopus laevis oocytes, nuclear cDNA injection
Procedure: as §1, §2, §3

[6] = target: T5, polyamine binding site on the NMDA receptor (Rattus norvegicus, UniProt P35439+Q00960); assay: [3H]ifenprodil binding, rat cortical membranes; details: 5–200 μM DCUKA tested
T5 construct: from tissue; host or cells: rat cortical membranes

[7] = target: benzodiazepine binding site on the GABAA receptor; assay: [3H]flunitrazepam binding, rat cortical membranes; details: 5–200 μM DCUKA tested
Procedure: SITES IN CEREBRUM OF F-344 RATS: EFFECTS OF EXERCISE,” Neurobiol. […] Non-specific binding was defined by 10 μM diazepam.

T5 sequence (Q00960 27-1482, other chains not shown): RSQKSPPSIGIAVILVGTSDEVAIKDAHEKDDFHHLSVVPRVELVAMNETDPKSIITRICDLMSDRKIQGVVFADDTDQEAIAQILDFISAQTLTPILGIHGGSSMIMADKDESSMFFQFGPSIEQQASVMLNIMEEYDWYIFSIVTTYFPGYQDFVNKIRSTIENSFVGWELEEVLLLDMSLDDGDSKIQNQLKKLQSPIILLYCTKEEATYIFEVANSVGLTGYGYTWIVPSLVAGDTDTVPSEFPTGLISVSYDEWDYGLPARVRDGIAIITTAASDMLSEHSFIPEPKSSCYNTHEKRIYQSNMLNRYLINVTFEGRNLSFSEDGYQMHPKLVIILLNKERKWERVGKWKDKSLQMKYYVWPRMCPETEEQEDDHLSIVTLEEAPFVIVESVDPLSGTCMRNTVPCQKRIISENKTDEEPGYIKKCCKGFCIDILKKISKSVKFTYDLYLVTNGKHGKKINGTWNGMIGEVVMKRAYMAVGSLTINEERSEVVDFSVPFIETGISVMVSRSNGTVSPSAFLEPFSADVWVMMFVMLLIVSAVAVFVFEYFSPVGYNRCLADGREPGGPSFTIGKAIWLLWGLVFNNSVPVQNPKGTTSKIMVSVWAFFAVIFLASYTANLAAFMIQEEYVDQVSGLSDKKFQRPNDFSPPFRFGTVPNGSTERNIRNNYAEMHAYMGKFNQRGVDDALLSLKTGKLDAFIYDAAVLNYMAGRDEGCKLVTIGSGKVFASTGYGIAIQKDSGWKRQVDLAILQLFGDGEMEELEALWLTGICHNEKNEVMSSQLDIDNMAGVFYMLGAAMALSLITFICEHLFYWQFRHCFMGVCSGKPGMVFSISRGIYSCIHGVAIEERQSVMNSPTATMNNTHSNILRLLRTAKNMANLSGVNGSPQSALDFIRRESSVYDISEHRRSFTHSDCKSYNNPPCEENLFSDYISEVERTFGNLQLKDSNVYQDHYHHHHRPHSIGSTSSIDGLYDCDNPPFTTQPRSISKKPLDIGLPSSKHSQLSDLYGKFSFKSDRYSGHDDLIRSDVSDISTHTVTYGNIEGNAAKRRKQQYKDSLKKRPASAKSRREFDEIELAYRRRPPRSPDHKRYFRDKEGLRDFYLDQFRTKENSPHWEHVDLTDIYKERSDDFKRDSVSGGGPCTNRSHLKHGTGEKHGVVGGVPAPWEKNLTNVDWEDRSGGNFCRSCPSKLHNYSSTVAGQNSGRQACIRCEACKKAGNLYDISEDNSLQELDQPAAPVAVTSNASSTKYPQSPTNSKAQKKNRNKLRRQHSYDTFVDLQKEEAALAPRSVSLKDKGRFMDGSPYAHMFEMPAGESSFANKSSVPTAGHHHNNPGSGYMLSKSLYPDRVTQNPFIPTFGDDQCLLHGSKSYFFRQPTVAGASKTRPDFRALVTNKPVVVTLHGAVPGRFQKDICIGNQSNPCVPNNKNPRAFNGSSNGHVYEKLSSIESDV

`COC(=O)c1cc(NC(=O)N(c2ccccc2)c2ccccc2)c2c(Cl)cc(Cl)cc2n1` [DCUK-OMe, (N,N-diphenyl)-4-ureido-5,7-dichloro-2-carboxy-quinoline methyl ester] was tested, and the “frequency of clonic audiogenic seizures” value [1] was “suppression of audiogenic seizures” and the “duration of ethanol-induced loss of righting reflex (LORR)” value (Swiss-Webster mice) was “no significant enhancement”.
For `O=C(O)c1cc(NC(=O)N(c2ccccc2)c2ccccc2)c2c(Cl)cc(Cl)cc2n1` [DCUKA, (N,N-diphenyl)-4-ureido-5,7-dichloro-2-carboxy-quinoline], the “reversal by glycine of inhibition of NMDA-induced currents” value [2] was “completely reversed at 10 μM glycine”, the IC50 [3] was 20.7 µM and the IC50 [4] was 12.8 µM. For the same molecule, the “reversal by glycine of inhibition of NMDA-induced currents” value [5] was “could not be overcome by glycine, even at a 100 μM concentration”, the IC50 [6] was over 200 µM and the IC50 [7] was over 200 µM.
